Consider two molecules from publication PMC7806935, “Exosite inhibition of ADAMTS-5 by a glycoconjugated arylsulfonamide” (Scientific Reports, 2021).

A value given as a limit tells only on which side of the number the result lay.

The assay concerns the target T1, ADAMTS-4 (Homo sapiens, UniProt O75173).
T1 construct: made in house
T1 sequence (O75173 213-837): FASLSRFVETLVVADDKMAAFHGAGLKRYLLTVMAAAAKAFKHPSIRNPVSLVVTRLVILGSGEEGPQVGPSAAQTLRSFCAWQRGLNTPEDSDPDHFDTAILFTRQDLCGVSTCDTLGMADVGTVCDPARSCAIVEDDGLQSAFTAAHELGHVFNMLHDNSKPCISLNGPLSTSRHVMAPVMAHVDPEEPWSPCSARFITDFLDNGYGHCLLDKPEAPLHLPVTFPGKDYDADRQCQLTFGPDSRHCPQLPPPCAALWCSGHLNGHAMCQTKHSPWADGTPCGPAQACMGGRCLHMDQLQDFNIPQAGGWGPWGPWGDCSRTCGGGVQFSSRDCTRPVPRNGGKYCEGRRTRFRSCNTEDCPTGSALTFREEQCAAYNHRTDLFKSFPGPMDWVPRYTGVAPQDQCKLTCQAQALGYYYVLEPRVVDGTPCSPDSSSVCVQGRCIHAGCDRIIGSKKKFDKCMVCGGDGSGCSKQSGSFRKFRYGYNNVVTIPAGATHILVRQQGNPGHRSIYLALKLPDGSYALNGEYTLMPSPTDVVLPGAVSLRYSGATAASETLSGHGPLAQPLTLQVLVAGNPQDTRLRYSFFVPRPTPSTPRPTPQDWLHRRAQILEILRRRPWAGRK
In words: Versican digestion assay (V1-5GAG, sandwich ELISA), ADAMTS-4. It counts as biochemical. To be noted: protein substrate V1-5GAG; mean ± SEM (n = 3); read-out: IC50 (μM) V1-5GAG ATS4. On the procedure: All enzyme assays were conducted in TNC-B buffer (50 mM Tris–HCl, pH 7.5, 150 mM NaCl, 10 mM CaCl2, and 0.02% NaN3) at 37 °C. To avoid the formation of inhibitor aggregates, the detergent Brij-35 (0.05%) was added to the assay buffer. No aggregation was visually observed at concentrations up to 2 mM. The inhibitor stock solutions in DMSO (10 mM) were diluted at different concentrations in assay buffer and incubated with ADAMTS-4 or ADAMTS-5 for 2 h at 37 °C. Percent of inhibition was calculated from control reactions containing only DMSO. IC50 values were determined using the formula: vi/v0 = 1/(1 + [I]/IC50) where vi is the initial velocity of substrate cleavage in the presence of the inhibitor at concentration [I] and v0 is the initial velocity in the presence of an equal concentration (v/v) of DMSO.
ADAMTS-5 full-length (FL) (final concentration 0.4 nM), ADAMTS-5 MDTCS (0.4 nM) ADAMTS-5 MD (26 nM) or ADAMTS-4 (5.5 nM) were incubated with different concentrations of inhibitors or DMSO for 2 h at 37 °C in TNC-B buffer before addition of V1-5GAG (50 nM). At different time points (0–20 min), sub-samples were removed and reactions were stopped with EDTA. Maxisorp plates (VWR, Lutterworth, UK) were coated with 5 μg/mL anti-DPEEAE neoepitope antibody (Cat n. PA1-1748A, Life Technologies, Paisley, UK) in carbonate buffer pH 9.6 (16 h, 4 °C). This neoepitope antibody specifically recognizes the N-terminal versican fragment versikine, generated when ADAMTS-5 cleaves versican at the Glu441↓442Ala bond. Washing steps were performed in triplicate with 300 μL phosphate buffered-saline (PBS) containing 0.1% Tween-20 between each step. Plates were blocked with 3% bovine serum albumin (BSA)/PBS for 2 h, at RT. The samples from the digestion experiments were diluted in 3% BSA/PBS and added to the plate (100 μL, 2 h, RT). Bound versikine fragments were detected using anti-G1 monoclonal antibody (Cat n. ab171887, Abcam, Cambridge, UK) (3 μg/mL in 0.5% BSA/PBS, 1.5 h, RT), followed by horseradish peroxidase (HRP)-conjugated anti-mouse antibodies (Cat. N. P044701-2, Agilent Technologies LTD, Cheadle, UK) (2.4 μg/mL, 1 h, RT). The assay was developed by addition of o-phenylenediamine dihydrochloride (OPD, Cat n. 34006, Sigma Aldrich, Gillingham, UK) for 10 min and reactions were stopped with 2 M H2SO4. The absorbance was measured at 492 nm using a BioTeK Epoch (BioTek, Swindon, UK) plate reader. For each dilution, the amount of neoepitope generated was derived from a standard curve (0–1.56 nM) of V1-5GAG completely digested with ADAMTS-5. Initial velocities were calculated from the concentration of versikine generated as a function of reaction time and IC50 values were determined.
For inhibition studies, initial rates of proteolysis (< 20% cleavage) were analyzed between 0 and 20 min. For determination of the specificity constants (kcat/Km), digestion reactions were allowed to occur to completion (0–2 h). Data were analyzed as previously described.
For orientation: ELISA stands for enzyme-linked immunosorbent assay.

What is called IC50 is the concentration at which inhibition is half-maximal. In the case of `CCC(C)N(Cc1cn(CCCOC2OC(CO)C(O)C(O)C2NC(C)=O)nn1)S(=O)(=O)c1ccc(-c2ccccc2)cc1` (mixture of isomers) [Compound 4b], the IC50 was more than 100 µM. Then `CCC(C)N(Cc1cn(CCCOC(=O)c2ccccc2)nn1)S(=O)(=O)c1ccc(-c2ccccc2)cc1` (racemic) [Compound 6], with more than 100 µM.
